Laboratory results taken from ChEMBL document CHEMBL5104111, “Boron-Containing heterocycles as promising pharmacological agents” (Bioorg Med Chem, 2022).
Values after ≈ are worked out from the molar mass of the structure shown.

Assays:
Vanrija humicola = test: Antifungal activity against Cryptococcus humicola ATCC 9949 assessed as fungal growth inhibition by broth microdilution method; type: functional
Candida albicans [1] = test: Antifungal activity against Candida albicans ATCC 14053 assessed as fungal growth inhibition by broth microdilution method; type: functional
Aspergillus niger [2] = test: Antifungal activity against Aspergillus niger ATCC 16404 assessed as fungal growth inhibition by broth microdilution method; type: functional
Fusarium oxysporum = test: Antifungal activity against Fusarium oxysporum VKM F-140 assessed as fungal growth inhibition by broth microdilution method; type: functional
[3] = tested on: Mycolicibacterium smegmatis; test: Antibacterial activity against Mycobacterium smegmatis assessed as bacterial growth inhibition; type: functional
A549 = test: Cytotoxicity against human A549 cells assessed as cell growth inhibition; type: functional
Salmonella typhimurium = test: Antibacterial activity against Salmonella typhimurium Delta-119 assessed as bacterial growth inhibition incubated for 16 hrs by broth dilution method; type: functional, Salmonella enterica subsp. enterica serovar Typhimurium; conditions: Salmonella enterica
Klebsiella pneumoniae [4] = test: Antibacterial activity against Klebsiella pneumoniae Delta-217 assessed as bacterial growth inhibition incubated for 16 hrs by broth dilution method; type: functional
MIA PaCa-2 = test: Anticancer activity against human MIA PaCa-2 cells assessed as cell growth inhibition incubated for 72 hrs by MTT assay; type: functional, cell-based; conditions: MIA PaCa-2, 72 h
MDA-MB-231 = test: Anticancer activity against human MDA-MB-231 cells assessed as cell growth inhibition incubated for 72 hrs by MTT assay; type: functional, cell-based; conditions: MDA-MB-231, 72 h
Pseudomonas aeruginosa = test: Antibacterial activity against Pseudomonas aeruginosa assessed as bacterial growth inhibition by broth microdilution method; type: functional
Streptococcus mutans [5] = test: Antibacterial activity against Streptococcus mutans assessed as bacterial growth inhibition; type: functional
Aspergillus niger [6] = test: Antifungal activity against Aspergillus niger ATCC 20408 assessed as fungal growth inhibition by plate colony counting method; type: functional
Bacillus cereus = test: Antibacterial activity against Bacillus cereus assessed as bacterial growth inhibition at 100 ug incubated for 48 hrs by disk diffusion method; type: functional; conditions: read-out: IZ
L5178Y = test: Anticancer activity against mouse L5178Y cells assessed as cell growth inhibition incubated for 24 hrs by MTT assay; type: functional, cell-based
Klebsiella aerogenes = test: Antibacterial activity against Enterobacter aerogenes ATCC 13048 assessed as bacterial growth inhibition at 10 mg/ml by hollow agar method; type: functional; conditions: read-out: IZ
Prototheca zopfii = test: Antimicrobial activity against Prototheca zopfii assessed as microbial growth inhibition by CLSI protocol based assay; type: functional
Caco-2 = test: Anticancer activity against human Caco-2 cells assessed as cell growth inhibition by cytometry; type: functional, cell-based
[7] = Anticancer activity against human 1321N1 cells assessed as cell growth inhibition by dynamic assay; type: functional, cell-based
[8] = tested on: Mycobacterium tuberculosis; test: Antibacterial activity against Mycobacterium tuberculosis assessed as bacterial growth inhibition; type: functional
Escherichia coli [9] = test: Antibacterial activity against Escherichia coli assessed as bacterial growth inhibition; type: functional
Klebsiella pneumoniae [10] = test: Antibacterial activity against Klebsiella pneumoniae assessed as bacterial growth inhibition; type: functional
Candida albicans [11] = test: Antifungal activity against Candida albicans assessed as fungal growth inhibition at 25 ug incubated for 48 hrs by disk diffusion method; type: functional; conditions: read-out: IZ
Aspergillus niger [12] = test: Antifungal activity against Aspergillus niger assessed as fungal growth inhibition at 25 ug incubated for 48 hrs by disk diffusion method; type: functional; conditions: read-out: IZ
Escherichia coli [13] = test: Antibacterial activity against Escherichia coli ATCC 25922 assessed as bacterial growth inhibition incubated for 72 hrs by broth microdilution method; type: functional
[14] = tested on: Mycolicibacterium smegmatis; test: Antibacterial activity against Mycobacterium smegmatis ATCC 700084 assessed as bacterial growth inhibition incubated for 72 hrs by broth microdilution method; type: functional
[15] = tested on: Mycobacterium tuberculosis; test: Antibacterial activity against Mycobacterium tuberculosis H37Rv ATCC 27294 assessed as bacterial growth inhibition by radiometry method; type: functional
[16] = tested on: Mycobacterium tuberculosis; test: Antibacterial activity against Mycobacterium tuberculosis H37Rv ATCC 25618 assessed as bacterial growth inhibition incubated for 5 days by fluorescence based assay; type: functional, organism-based; conditions: H37Rv ATCC 25618, 120 h
HepG2 = test: Cytotoxicity against human HepG2 cells assessed as cell growth inhibition incubated for 72 hrs by Cell Titer Glo assay; type: functional, cell-based; conditions: HepG2, 72 h
Staphylococcus aureus = test: Antibacterial activity against Staphylococcus aureus ATCC 43300 assessed as bacterial growth inhibition incubated for 1 hr by plate colony counting method; type: functional
Saccharomyces cerevisiae = test: Antifungal activity against Saccharomyces cerevisiae assessed as fungal growth inhibition at 100 ug; type: functional; conditions: read-out: IZ
Streptococcus mutans [17] = test: Antibiofilm activity against Streptococcus mutans ATCC 27351 assessed as bacterial viability at 0.2 uM by SYTO/PI staining based inverted microscopy relative to control; type: functional
Aspergillus niger [18] = test: Antifungal activity against Aspergillus niger assessed as fungal growth inhibition at 50 ug incubated for 96 hrs by disk diffusion method; type: functional; conditions: read-out: IZ
Verticillium dahliae = test: Antifungal activity against Verticillium dahliae assessed as fungal growth inhibition at 50 ug incubated for 96 hrs by disk diffusion method; type: functional; conditions: read-out: IZ

Question: What does the source list for `C[C@@H]1[C@H](O)[C@@H](C)/C=C/C=C/C=C/C=C/C=C/C=C/C=C/[C@H](O[C@@H]2O[C@H](C)[C@@H](O)[C@H](NS(=O)(=O)c3ccc4c(c3)OB(O)C4)[C@@H]2O)C[C@@H]2O[C@](O)(C[C@@H](O)C[C@@H](O)[C@H](O)CC[C@@H](O)C[C@@H](O)CC(=O)O[C@H]1C)C[C@H](O)[C@H]2C(=O)O`?
Answer: MIC (Vanrija humicola): 0.25 µg/mL (≈ 0.223 µM); MIC (Candida albicans [1]): 0.25 µg/mL (≈ 0.223 µM); MIC (Aspergillus niger [2]): 0.25 µg/mL (≈ 0.223 µM); MIC (Fusarium oxysporum): 0.25 µg/mL (≈ 0.223 µM)

Question: With `O=C(NCCOCCOCCNC(=O)c1ccc2c(c1)B(O)OC2)c1ccc2c(c1)COB2O` as the compound, how does the MIC [3] read?
Answer: 0.78 µM (≈ 0.365 µg/mL)

Question: What about the MIC99 (A549) of the same compound?
Answer: > 10 µM

Question: With `CCCS(=O)(=O)N1N=Cc2sc(C)cc2B1O` as the compound, how does the MIC (Salmonella typhimurium) read?
Answer: 0.19 µg/mL (≈ 0.698 µM)

Question: And the MIC (Klebsiella pneumoniae [4])?
Answer: 0.31 µg/mL (≈ 1.14 µM)

Question: With `COc1ccc(CN(C(=O)Nc2ccccc2)c2ccc3c(c2)B(O)OC3)cc1` as the compound, how does the IC50 (MIA PaCa-2) read?
Answer: 8.3 µM

Question: What about the IC50 (MDA-MB-231) of the same compound?
Answer: 11.5 µM

Question: For `Clc1ccc(-c2noc3c2COB(c2ccc(Br)cc2)OC3)cc1`, which MIC (Pseudomonas aeruginosa) is on record?
Answer: 25 µg/mL (≈ 61.8 µM)

Question: For `CC1NB(c2ccccc2)OC1c1ccccc1` (stereo unspecified), which MIC (Streptococcus mutans [5]) is on record?
Answer: 1300 µM (≈ 308 µg/mL)

Question: With `Brc1cccc(B2NC(c3ccccc3)=NO2)c1` as the compound, how does the MIC (Aspergillus niger [6]) read?
Answer: 0.08 µM (≈ 0.0241 µg/mL)

Question: Which zone of inhibition at 100 µg/disc (Bacillus cereus) does the source give for `CCNC(=S)N1N=Cc2c(F)cccc2B1O` here?
Answer: 3.4 mm

Question: For `O=C1C[NH2+][B-](c2ccccc2)(c2ccccc2)O1`, which IC50 (L5178Y) is on record?
Answer: 22.5 µM

Question: With `CCN(CC)c1ccc(B2Oc3ccc(C(C)(C)C)cc3O2)cc1` as the compound, how does the zone of inhibition at 10000 µg/mL (Klebsiella aerogenes) read?
Answer: 30.3 mm

Question: Which MIC (Prototheca zopfii) does the source give for `O=[N+]([O-])c1ccc([N+]2=C(c3ccccc3)C=C(C(Cl)(Cl)Cl)O[B-]2(F)F)cc1` here?
Answer: 0.3 µg/mL (≈ 0.692 µM)

Question: Which results are given for `CC(C)C1=[N+](Cc2cccc(C(F)(F)F)c2)[B-](c2ccccc2)(c2ccccc2)OC1=O`?
Answer: IC50 (Caco-2): 76 µM; IC50 [7]: 268 µM

Question: For `Cc1ccc2c(c1-c1ccccc1C(N)=O)B(O)OC2`, which IC90 [8] is on record?
Answer: 1.8 µM

Question: With `O=C(NCCCOCCOCCOCCCNC(=O)c1ccc2c(c1)B(O)OC2)c1ccc2c(c1)COB2O` as the compound, how does the MIC [3] read?
Answer: 1.56 µM (≈ 0.843 µg/mL)

Question: What about the MIC99 (A549) of the same compound?
Answer: > 5 µM

Question: For `Cc1ccc(S(=O)(=O)N2N=Cc3ccccc3B2O)cc1`, which MIC (Escherichia coli [9]) is on record?
Answer: 25 µg/mL (≈ 83.3 µM)

Question: And the MIC (Klebsiella pneumoniae [10])?
Answer: 3.1 µg/mL (≈ 10.3 µM)

Question: For `C=CCNC(=S)N1N=Cc2ccccc2B1O`, which zone of inhibition at 25 µg/disc (Candida albicans [11]) is on record?
Answer: 9 mm

Question: And the zone of inhibition at 25 µg/disc (Aspergillus niger [12])?
Answer: 7 mm

Question: Which MIC (Escherichia coli [13]) does the source give for `NC(=O)N1N=Cc2ccccc2B1O` here?
Answer: 16 µg/mL (≈ 84.7 µM)

Question: What about the MIC [14] of the same compound?
Answer: 2 µg/mL (≈ 10.6 µM)

Question: For `OB1c2ccccc2NC(=S)N1c1ccccc1`, which MIC [15] is on record?
Answer: 8 µg/mL (≈ 31.5 µM)

Question: Which IC50 [16] does the source give for `CS(=O)(=O)N1N=Cc2ccc(Oc3ccc(C(F)(F)F)cc3/C=N/O)cc2B1O` here?
Answer: 0.11 µM

Question: And the IC50 (HepG2)?
Answer: > 100 µM

Question: Which MIC (Salmonella typhimurium) does the source give for `Cc1ccc(S(=O)(=O)N2N=Cc3cc(C)oc3B2O)cc1` here?
Answer: 3.12 µg/mL (≈ 10.3 µM)

Question: What about the MIC (Klebsiella pneumoniae [4]) of the same compound?
Answer: 1.56 µg/mL (≈ 5.13 µM)

Question: With `Cc1cccc(N2B(c3cccc([N+](=O)[O-])c3)ON=C2c2ccccc2)c1` as the compound, how does the MIC (Staphylococcus aureus) read?
Answer: 0.06 µM (≈ 0.0214 µg/mL)

Question: Which zone of inhibition at 100 µg/disc (Saccharomyces cerevisiae) does the source give for `CCNC(=S)N1N=Cc2ccccc2B1O` here?
Answer: 4.3 mm

Question: Which Activity (Streptococcus mutans [17]) does the source give for `CCCCB1NC(C)(C)CO1` here?
Answer: 40%

Question: With `COc1ccc2c(c1)C=NN(C(N)=S)B2O` as the compound, how does the zone of inhibition at 50 µg/disc (Aspergillus niger [18]) read?
Answer: 2.3 mm

Question: And the zone of inhibition at 50 µg/disc (Verticillium dahliae)?
Answer: 6.4 mm

Question: With `O=C(NCCNC(=O)c1ccc2c(c1)B(O)OC2)c1ccc2c(c1)B(O)OC2` as the compound, how does the MIC [3] read?
Answer: 0.78 µM (≈ 0.296 µg/mL)

Question: And the MIC99 (A549)?
Answer: > 5 µM

Question: For `CCCCB1OC(c2ccccc2)C(C)N1C` (stereo unspecified), which MIC (Streptococcus mutans [5]) is on record?
Answer: 500 µM (≈ 116 µg/mL)
